The results in this text go back to patent US20050282755A1, “Compositions having antimicrobial activity and uses thereof” (priority 2004, published 2005).

The test system of one data set is S. dublin (Lane). Description: Broth microdilution assay for MIC, Table 4A. As to conditions: 3 log or greater reduction in bacterial growth over 16 hours. It counts as cell-based, Salmonella dublin. How it is done:
(§1) S. dublin (Lane), S. aureus (Rosenbach), P. acnes, ATCC 6919, E. coli K12 TOP10, and E. coli K12 55099 (protease neg.) bacterial strains were tested in the microbial inhibition assays described hereafter. The S. dublin (Lane), and S. aureus (Rosenbach) strains are available from ATCC (Staphylococcus aureus subsp. aureus Rosenbach (Number: 13150) and Salmonella choleraesuis serotype dublin (Number: 39184)). The strain of P. acnes was purchased from ATCC (strain #6919) (Manassas, Va.). The E. coli K12 strains TOP 10 and 55099 were purchased from Invitrogen (Carlsbad, Calif.) and ATCC respectively. HeLa cells were purchased from ATCC (CCL2). Tryptic soy broth (TSB), Brucella broth, reinforced Clostridial broth and agar were purchased from Becton & Dickinson (distributed by VWR, West Chester, Pa.). All plastic consumables were purchased from VWR (West Chester, Pa.). […]
(§2) The minimum inhibitory concentration (MIC) of peptide compositions for S. aureus, S. dublin and E. coli was determined in a broth microdilution assay. […] The MIC for each peptide for each microorganism was determined by three methods. The growth of bacteria was directly determined by measuring the absorption at 600 nm using a Versamax microplate reader (Molecular Devices). […] After incubation for 16 hours at 37° C. bacterial growth was evaluated and documented (Alpha Innotech gel documentation system).

In a further data set the test system is human red blood cells. The format is cell-based. As to conditions: red cells of human, 100 Micromolar. As to the method: Hemoglobin-release assays with human red blood cells (RBC) were performed to determine the hemolytic activity of granulysin peptides. Human RBCs (San Diego Blood Bank, San Diego, Calif.) were washed three times in PBS buffer (8 mM Na2HPO4, 1.5 mM KH2PO4, 140 mM NaCl and 2.7 mM KCl, pH 7.4), resuspended in PBS to the concentration of 5% (v/v). The RBC were then exposed to different peptide compositions at various concentrations (100-6.25 micromolar) and incubated at 37° C. for 60 minutes in a total volume of 120 microliters. Every experiment included a negative control without peptide and maximum control treated with 5% TX-100 for complete hemoglobin release. Samples were centrifuged for 1 minute at 13,000 g to remove debris and intact cells. The hemoglobin-containing supernatant was removed and transferred to a microwell plate. Hemoglobin release was quantified at A540 using a Versamax plate reader (Molecular Devices). The degree of hemolysis is expressed as percentage of hemolysis compared to the […], using the following formula: % hemolysis=(sample−neg. control)/(max. control−neg. control)×100.

The test system of the next data set is S. aureus (Rosenbach). As to the kind of experiment: Broth microdilution assay for MIC (20% TSB, 50 mM Na2CO3, 1 mM MgCl2), Table 4A. The format is cell-based, Staphylococcus aureus. To be noted: 3 log or greater reduction in bacterial growth over 16 hours. As to the method:
as §1, §2

Data set [1] has as its system indigenous bacteria in human sebum. As to the kind of experiment: Human sebum assay, bactericidal activity. The format is cell-based. To be noted: 250 Micromolar peptide, 150 minutes at 37° C; none: 8500000. How it is done: Sebum was harvested from healthy human volunteers using Biore® deep cleansing pore strips. The seburn plugs were collected in a microtube with a tweezer. […] The seburn was resusupended in 1% TSB, 10 mM Na2HPO4 into fine particulate suspension. The assay was performed in a total volume of 50 microliters. […] The samples were incubated for 150 minutes at 37° C. To determine the number of viable bacteria, a serial dilution was prepared (10 fold dilutions to 1/100000). […] After incubation for 72 hours bacterial growth was documented (Alpha Innotech documentation system). The number of CFU/milliliter was determined by counting bacteria colonies. The efficacy of a peptide is indicated by the reduction of CFU/milliliter compared to the untreated control.

A further data set relates to P. acnes, ATCC 6919. As to the kind of experiment: Broth microdilution assay for P. acnes MBC, Table 4B. To be noted: 3 log or greater reduction in CFU/milliliter after 2.5 hours. The format is cell-based, Propionibacterium acnes. The source says: The strain of P. acnes was purchased from ATCC (strain #6919) (Manassas, Va.). […] HeLa cells were purchased from ATCC (CCL2). Tryptic soy broth (TSB), Brucella broth, reinforced Clostridial broth and agar were purchased from Becton & Dickinson (distributed by VWR, West Chester, Pa.). All plastic consumables were purchased from VWR (West Chester, Pa.). Chemicals were purchased from Sigma Aldrich (St. Louis, Mo.). DMEM, antibiotics and cell culture supplements were purchased from Invitrogen (Carlsbad, Calif.), fetal calf serum (FCS) was purchased from Hyclone (Logan, Utah). […] For propagation in liquid culture individual colonies were inoculated in […] of TSB broth for 16 hours at 37° C. under constant shaking. P. acnes was grown on Brucella broth blood agar plates (supplemented with 5% defibrinated sheep blood, […] hemin and […] vitamin K) under anaerobic conditions (GasPak system, Becton & Dickinson) for 96 hours at 37° C. For propagation in liquid culture individual colonies were inoculated in […] of reinforced Clostridial broth under anaerobic conditions for 72 hours at 37° C. […] The minimum bactericidal concentration (MBC) of peptide compositions for P. acnes was determined in a microdilution assay. […] The appearance of bacterial colonies was evaluated and documented.

Molecules are shown by their SMILES. Converted amounts (≈) assume the structure as drawn.

For `CSCC[C@@H](NC(=O)[C@@H](Cc1ccccc1)NC(=O)[C@@H](CC(N)=O)NC(=O)[C@@H](CCCNC(=N)N)NC(=O)[C@@H](CO)NC(=O)[C@@H](Cc1c[nH]c2ccccc12)NC(=O)[C@@H](CC(=O)O)NC(=O)[C@@H](CCCNC(=N)N)NC(=O)[C@@H](Cc1c[nH]c2ccccc12)NC(=O)[C@@H](CCCNC(=N)N)NC(=O)[C@@H](CO)NC(=O)[C@@H](CCCNC(=N)N)NC(=O)CNC(=O)[C@H](NC(=O)[C@@H](CCCNC(=N)N)NC(=O)[C@@H](CO)NC(=O)[C@H](NC(=O)[C@@H](CCCNC(=N)N)NC(=O)[C@H](NC(C)=O)[C@H](C)O)C(C)C)[C@H](C)O)C(=O)N[C@H](CCCNC(=N)N)C(=O)N[C@H](C)C(=O)N[C@H](C)C(N)=O` [Peptide 30, Ac-trvsrtgrsrwrdwsrnfmraa-NH2], in the data set with S. dublin (Lane), the “Minimum inhibitory concentration (MIC) S. dublin” value turned out to be 4 µM (≈ 11.2 µg/mL). The “Hemolytic effect on human red blood cells” value in the data set with human red blood cells is 0%. Further, the “Minimum inhibitory concentration (MIC) S. aureus” value in the data set on S. aureus (Rosenbach) is 8 µM (≈ 22.4 µg/mL). Further, the “Bactericidal activity for indigenous bacteria in human sebum, cfu/ml” value in data set [1] is given as 1000 cfu/ml. Also, in the data set on P. acnes, ATCC 6919, the “Minimum bactericidal concentration (MBC) for P. acnes” value came out at 8 micromolar units.
